Test results published in US12428403B2, “N-(heterocyclyl and heterocyclylalkyl)-3-benzylpyridin-2-amine derivatives as SSTR4 agonists” (Takeda Pharmaceutical Company Limited, priority 2020, dated 2025).

Assays:
SSTR4 [1] = molecular target: T1, SSTR4 (Homo sapiens, UniProt P31391); assay: cell-based
SSTR1 = SSTR1 (Homo sapiens, UniProt P30872); assay: biochemical;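 also: competitive binding to membranes of CHO-K1 cells overexpressing SSTR1, incubated 60 min at room temperature, radioactivity read by scintillation counting after filtration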
SSTR1, sequence (P30872 whole entry): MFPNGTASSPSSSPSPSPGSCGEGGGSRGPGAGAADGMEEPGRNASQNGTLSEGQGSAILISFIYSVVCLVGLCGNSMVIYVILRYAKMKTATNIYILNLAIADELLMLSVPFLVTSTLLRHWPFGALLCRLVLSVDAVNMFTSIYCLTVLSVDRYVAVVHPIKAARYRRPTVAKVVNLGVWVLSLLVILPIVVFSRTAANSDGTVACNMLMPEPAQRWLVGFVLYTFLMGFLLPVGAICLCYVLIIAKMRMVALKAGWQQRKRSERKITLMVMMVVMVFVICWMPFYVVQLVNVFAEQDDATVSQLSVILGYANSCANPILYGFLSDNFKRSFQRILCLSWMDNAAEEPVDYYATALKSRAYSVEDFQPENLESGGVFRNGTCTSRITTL
Description: SSTR1 I-125 Somatostatin Competition Binding Assay for Selectivity Versus SSTR1
Membranes from CHO-K1 cells overexpressing SSTR1 are purchased from Perkin Elmer (catalog number ES-520-M400UA). Test compounds are suspended in DMSO and then diluted in assay buffer (25 mM HEPES pH 7.4, 10 mM MgCl2, 1 mM CaCl2, 0.5% BSA) plus 0.4 nM I-125 labeled somatostatin (Perkin Elmer catalog number NEX389). […] Then 10 μg of SSTR1 membranes in 50 μL assay buffer are added per well. The plate is incubated for 60 minutes at room temperature. […] The contents of the assay plate are transferred to filters with a TomTech harvester and washed 5 times with 20 mM HEPES, 100 mM NaCl. […] The scintillator sheets are melted to the filters using a heat block. The filters are then read in a MicroBeta scintillation counter. Binding Ki curves are generated using Activity Base for Screening Data Management and the results are reported as pIC50.

SSTR4 [2] = molecular target: T1, SSTR4; assay: SSTR4 I-125 somatostatin competition binding assay (CHO-K1 membranes); set-up: host or cells: CHO-K1; settings: competition with I-125 labeled somatostatin, membranes from CHO-K1 overexpressing SSTR4; read-out: SSTR4 Binding pIC50 (converted)
Description: SSTR4I-125 Somatostatin Competition Binding Assay
Membranes from CHO-K1 cells overexpressing SSTR4 are purchased from Perkin Elmer (catalog number ES-524-M400UA). […] The scintillator sheets are melted to filters using a heat block.
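For EC50 in this document: CHO-K1 cells overexpressing SSTR4, reduction of forskolin-driven cAMP after 30 min compound exposure at room temperature, cAMP read by HTRF LANCE Ultra kit.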

T1 sequence (P31391 whole entry): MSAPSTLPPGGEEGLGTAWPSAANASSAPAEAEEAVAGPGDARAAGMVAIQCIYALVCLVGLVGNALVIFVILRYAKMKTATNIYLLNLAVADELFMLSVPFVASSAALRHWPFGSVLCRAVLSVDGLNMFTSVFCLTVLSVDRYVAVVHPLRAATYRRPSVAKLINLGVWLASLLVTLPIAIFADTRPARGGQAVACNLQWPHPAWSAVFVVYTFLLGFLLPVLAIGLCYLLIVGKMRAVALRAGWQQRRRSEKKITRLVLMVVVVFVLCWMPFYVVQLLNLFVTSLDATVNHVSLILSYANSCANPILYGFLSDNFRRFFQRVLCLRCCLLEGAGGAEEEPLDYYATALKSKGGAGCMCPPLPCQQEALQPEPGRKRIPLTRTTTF

| SMILES | EC50 (SSTR4 [1]) | IC50 (SSTR1) | IC50 (SSTR4 [2]) |
| --- | --- | --- | --- |
| CC(c1ccc(F)cc1)c1nc(C(N)=O)cnc1NCCN1CCCC1 (stereo not drawn) [Example 19, 6-(1-(4-fluorophenyl)ethyl)-5-((2-(pyrrolidin-1-yl)ethyl)amino)pyrazine-2-carboxamide] | 5.37 nM | 5750 nM | 50.1 nM |
| CNC(=O)c1cnc(NCCN2CCCC2)c(C(C)c2ccc(F)cc2)n1 (stereo not drawn) [Example 22, 6-(1-(4-fluorophenyl)ethyl)-N-methyl-5-((2-(pyrrolidin-1-yl)ethyl)amino)pyrazine-2-carboxamide] | 3.72 nM | 10500 nM | 77.6 nM |
| CC(c1ccc(F)cc1)c1ncc(C(=O)N(C)C)nc1NCCN1CCCC1 (stereo not drawn) [Example 28] | 4.68 nM | 1660 nM | 389 nM |
| CC(c1ccc(F)cc1)c1ncc(C(N)=O)nc1NCCN1CCCC1 (stereo not drawn) [Example 37, 5-(1-(4-fluorophenyl)ethyl)-6-((2-(pyrrolidin-1-yl)ethyl)amino)pyrazine-2-carboxamide] | 61.7 nM | 4570 nM | 490 nM |
| Cc1cccc(Cc2nc(C(=O)N(C)C)c(C)nc2NCCN2CCCC2)c1 [Example 39, N,N,3-trimethyl-6-(3-methylbenzyl)-5-((2-(pyrrolidin-1-yl)ethyl)amino)pyrazine-2-carboxamide] | 4.27 nM | 26900 nM | 41.7 nM |
| CNC(=O)c1nc(Cc2cccc(C)c2)c(NCCN2CCCC2)nc1C [Example 40, N,3-dimethyl-6-(3-methylbenzyl)-5-((2-(pyrrolidin-1-yl)ethyl)amino)pyrazine-2-carboxamide] | 1.17 nM | 8910 nM | 21.9 nM |
| Cc1cccc(Cc2nc(C(N)=O)c(C)nc2NCCN2CCCC2)c1 [Example 41, 3-methyl-6-(3-methylbenzyl)-5-((2-(pyrrolidin-1-yl)ethyl)amino)pyrazine-2-carboxamide] | 2.09 nM | 13200 nM | 23.4 nM |
| Cc1nc(NCCN2CCCC2)c(Cc2ccc(F)cc2)nc1C(=O)N(C)C [Example 42, 6-(4-fluorobenzyl)-N,N,3-trimethyl-5-((2-(pyrrolidin-1-yl)ethyl)amino)pyrazine-2-carboxamide] | 12.6 nM | 10000 nM | 138 nM |
| CNC(=O)c1nc(Cc2ccc(F)cc2)c(NCCN2CCCC2)nc1C [Example 43, 6-(4-fluorobenzyl)-N,3-dimethyl-5-((2-(pyrrolidin-1-yl)ethyl)amino)pyrazine-2-carboxamide] | 12.6 nM | 9770 nM | 39.8 nM |
| CNC(=O)c1nc(Cc2ccc(F)cc2)c(NCCN2CCCC2)nc1C [Example 44, 6-(4-fluorobenzyl)-N,3-dimethyl-5-((2-(pyrrolidin-1-yl)ethyl)amino)pyrazine-2-carboxamide] | 4.79 nM | 11700 nM | 67.6 nM |
| Cc1nc(NCCN2CCCC2)c(C(C)c2ccc(F)cc2)nc1C(=O)N(C)C (stereo not drawn) [Example 48, 6-(1-(4-fluorophenyl)ethyl)-N,N,3-trimethyl-5-((2-(pyrrolidin-1-yl)ethyl)amino)pyrazine-2-carboxamide] | 0.776 nM | 9550 nM | 11.7 nM |
| CNC(=O)c1nc(C(C)c2ccc(F)cc2)c(NCCN2CCCC2)nc1C (stereo not drawn) [Example 49, 6-(1-(4-fluorophenyl)ethyl)-N,3-dimethyl-5-((2-(pyrrolidin-1-yl)ethyl)amino)pyrazine-2-carboxamide] | 0.977 nM | 2570 nM | 16.6 nM |
| Cc1nc(NCCN2CCCC2)c(C(C)c2ccc(F)cc2)nc1C(=O)NCCF (stereo not drawn) [Example 51, N-(2-fluoroethyl)-6-(1-(4-fluorophenyl)ethyl)-3-methyl-5-((2-(pyrrolidin-1-yl)ethyl)amino)pyrazine-2-carboxamide] | 3.09 nM | 81.3 nM | 18.2 nM |

Now from value to molecule:

| EC50 (SSTR4 [1]) | IC50 (SSTR1) | IC50 (SSTR4 [2]) | SMILES |
| --- | --- | --- | --- |
| 1.86 nM | 1620 nM | 16.2 nM | COCCNC(=O)c1nc(C(C)c2ccc(F)cc2)c(NCCN2CCCC2)nc1C (stereo not drawn) [Example 52, 6-(1-(4-fluorophenyl)ethyl)-N-(2-methoxyethyl)-3-methyl-5-((2-(pyrrolidin-1-yl)ethyl)amino)pyrazine-2-carboxamide] |
| 4.9 nM | 1580 nM | 40.7 nM | Cc1nc(NCCN2CCCC2)c(C(C)c2ccc(F)cc2)nc1C(=O)N1CCC(F)(F)C1 (stereo not drawn) [Example 60, (3,3-difluoropyrrolidin-1-yl)(6-(1-(4-fluorophenyl)ethyl)-3-methyl-5-((2-(pyrrolidin-1-yl)ethyl)amino)pyrazin-2-yl)methanone] |
| 15.8 nM | 1510 nM | 20.4 nM | Cc1nc(NCCN2CCCC2)c(C(C)c2ccc(F)cc2)nc1C(=O)N[C@@H]1CCOC1 (stereo partly drawn) [Example 61, 6-(1-(4-fluorophenyl)ethyl)-3-methyl-5-((2-(pyrrolidin-1-yl)ethyl)amino)-N-((R)-tetrahydrofuran-3-yl)pyrazine-2-carboxamide] |
| 4.27 nM | 1410 nM | 14.5 nM | Cc1nc(NCCN2CCCC2)c(C(C)c2ccc(F)cc2)nc1C(=O)NC1CC1 (stereo not drawn) [Example 62, N-cyclopropyl-6-(1-(4-fluorophenyl)ethyl)-3-methyl-5-((2-(pyrrolidin-1-yl)ethyl)amino)pyrazine-2-carboxamide] |
| 1.35 nM | 5370 nM | 18.2 nM | CCN(C)C(=O)c1nc(C(C)c2ccc(F)cc2)c(NCCN2CCCC2)nc1C (stereo not drawn) [Example 63, N-ethyl-6-(1-(4-fluorophenyl)ethyl)-N,3-dimethyl-5-((2-(pyrrolidin-1-yl)ethyl)amino)pyrazine-2-carboxamide] |
| 13.8 nM | 1260 nM | 33.9 nM | Cc1nc(NCCN2CCCC2)c(C(C)c2ccc(F)cc2)nc1C(=O)N[C@H]1C[C@@H](F)C1 (stereo partly drawn) [Example 64, N-(cis-3-fluorocyclobutyl)-6-(1-(4-fluorophenyl)ethyl)-3-methyl-5-((2-(pyrrolidin-1-yl)ethyl)amino)pyrazine-2-carboxamide] |
| 1.62 nM | 3390 nM | 17 nM | Cc1nc(NCCN2CCCC2)c(C(C)c2ccc(F)cc2)nc1C(=O)N(C)C1CC1 (stereo not drawn) [Example 65, N-cyclopropyl-6-(1-(4-fluorophenyl)ethyl)-N,3-dimethyl-5-((2-(pyrrolidin-1-yl)ethyl)amino)pyrazine-2-carboxamide] |
| 4.17 nM | 3470 nM | 36.3 nM | Cc1nc(NCCN2CCCC2)c(C(C)c2ccc(F)cc2)nc1C(=O)N1CC[C@H](F)C1 (stereo partly drawn) [Example 66, (6-(1-(4-fluorophenyl)ethyl)-3-methyl-5-((2-(pyrrolidin-1-yl)ethyl)amino)pyrazin-2-yl)((S)-3-fluoropyrrolidin-1-yl)methanone] |
| 1.7 nM | 3630 nM | 10 nM | Cc1nc(NCCN2CCCC2)c(C(C)c2ccc(F)cc2)nc1C(=O)N(C)C(C)C (stereo not drawn) [Example 67, 6-(1-(4-fluorophenyl)ethyl)-N-isopropyl-N,3-dimethyl-5-((2-(pyrrolidin-1-yl)ethyl)amino)pyrazine-2-carboxamide] |
| 0.676 nM | 3550 nM | 31.6 nM | CO[C@H]1CCN(C(=O)c2nc(C(C)c3ccc(F)cc3)c(NCCN3CCCC3)nc2C)C1 (stereo partly drawn) [Example 68, (6-(1-(4-fluorophenyl)ethyl)-3-methyl-5-((2-(pyrrolidin-1-yl)ethyl)amino)pyrazin-2-yl)((S)-3-methoxypyrrolidin-1-yl)methanone] |
| 8.71 nM | 2400 nM | 135 nM | Cc1nc(NCCN2CCCC2)c(C(C)c2ccc(F)cc2)nc1C(=O)N[C@H]1CCOC1 (stereo partly drawn) [Example 69, 6-(1-(4-fluorophenyl)ethyl)-3-methyl-5-((2-(pyrrolidin-1-yl)ethyl)amino)-N-((S)-tetrahydrofuran-3-yl)pyrazine-2-carboxamide] |
| 4.27 nM | 2450 nM | 31.6 nM | CO[C@H]1C[C@H](NC(=O)c2nc(C(C)c3ccc(F)cc3)c(NCCN3CCCC3)nc2C)C1 (stereo partly drawn) [Example 71, 6-(1-(4-fluorophenyl)ethyl)-N-(trans-3-methoxycyclobutyl)-3-methyl-5-((2-(pyrrolidin-1-yl)ethyl)amino)pyrazine-2-carboxamide] |
| 3.39 nM | 4790 nM | 64.6 nM | CO[C@@H]1CCN(C(=O)c2nc(C(C)c3ccc(F)cc3)c(NCCN3CCCC3)nc2C)C1 (stereo partly drawn) [Example 72, (6-(1-(4-fluorophenyl)ethyl)-3-methyl-5-((2-(pyrrolidin-1-yl)ethyl)amino)pyrazin-2-yl)((R)-3-methoxypyrrolidin-1-yl)methanone] |
| 9.77 nM | 1100 nM | 47.9 nM | Cc1nc(NCCN2CCCC2)c(C(C)c2ccc(F)cc2)nc1C(=O)NC1CC(F)(F)C1 (stereo not drawn) [Example 73, N-(3,3-difluorocyclobutyl)-6-(1-(4-fluorophenyl)ethyl)-3-methyl-5-((2-(pyrrolidin-1-yl)ethyl)amino)pyrazine-2-carboxamide] |
| 3.24 nM | 4370 nM | 63.1 nM | Cc1nc(NCCN2CCCC2)c(C(C)c2ccc(F)cc2)nc1C(=O)N1CC[C@@H](F)C1 (stereo partly drawn) [Example 74, (6-(1-(4-fluorophenyl)ethyl)-3-methyl-5-((2-(pyrrolidin-1-yl)ethyl)amino)pyrazin-2-yl)((R)-3-fluoropyrrolidin-1-yl)methanone] |
| 12.6 nM | 28200 nM | 77.6 nM | Cc1nc(Cc2ccc(F)cc2)c(NCCN2CCC2)nc1C [Example 78, N-(2-(azetidin-1-yl)ethyl)-3-(4-fluorobenzyl)-5,6-dimethylpyrazin-2-amine] |
| 5.01 nM | 3720 nM | 10.5 nM | Cc1cccc(Cc2ncc(C(C)C)nc2NCCN2CCC2)c1 [Example 87, N-(2-(azetidin-1-yl)ethyl)-6-isopropyl-3-(3-methylbenzyl)pyrazin-2-amine] |
